Data taken from ChEMBL document CHEMBL3751786, “Toxocara canis: Larvicidal activity of fatty acid amides” (Bioorg Med Chem Lett, 2016).
Activity calls are given as the source filed them. The calls are words filed in the database; no cut-off is given here.

What was measured:
Toxocara canis [1] = experiment: Larvicidal activity against Toxocara canis larvae at 1 mg/ml after 48 hrs by trypan blue assay relative to control; assay type: functional
Toxocara canis [2] = experiment: Larvicidal activity against Toxocara canis larvae infected in BALB/c mouse at 1 mg/ml after 12 hrs; assay type: functional
Toxocara canis [3] = experiment: Larvicidal activity against Toxocara canis larvae infected in BALB/c mouse at 40 mg/kg after 12 hrs; assay type: functional, organism-based
Toxocara canis [4] = experiment: Larvicidal activity against Toxocara canis larvae infected in BALB/c mouse at 0.05 mg/ml after 12 hrs; assay type: functional
[5] = Cytotoxicity against C57BL/6 mouse peritoneal macrophages at 0.025 to 0.05 mg/ml after 48 hrs by MTT assay; assay type: cell-based, Peritoneal macrophage cell; conditions: read-out: MLC
[6] = Cytotoxicity against C57BL/6 mouse peritoneal macrophages at 0.025 to 0.05 mg/ml after 48 hrs by LDH release assay; assay type: cell-based; conditions: peritoneal macrophage cell

| SMILES | Activity (Toxocara canis [1]) [%] | Activity (Toxocara canis [2]) | Activity (Toxocara canis [3]) | Activity (Toxocara canis [4]) | MCC at 48 h [5] [µg/mL] | Activity [6] [%] |
| --- | --- | --- | --- | --- | --- | --- |
| CCCCCCCC/C=C\CCCCCCCC(=O)N[C@@H](C)c1ccccc1 | 100 | Active |  |  |  |  |
| CCCCCC[C@@H](O)C/C=C\CCCCCCCC(=O)N[C@H](C)c1ccccc1 | 100 | Active |  |  |  |  |
| CCCCC/C=C\C/C=C\CCCCCCCC(=O)N[C@H](C)c1ccccc1 | 100 | Active |  |  |  |  |
| CCCCCC[C@@H](O)C/C=C\CCCCCCCC(=O)N[C@@H](C)c1ccccc1 | 100 | Active |  |  |  |  |
| CCCCCCCCCCCCCCCC(=O)N[C@H](C)c1ccccc1 | 100 | Active |  |  |  |  |
| CCCCCCCCCCCCCCCCCC(=O)N[C@H](C)c1ccccc1 | 100 | Active |  |  |  |  |
| CCCCCC[C@@H](O)C/C=C\CCCCCCCC(=O)NN1CCCC1 | 100 | Active |  |  |  |  |
| CCCSc1ccc2[nH]c(NC(=O)OC)nc2c1 [ALBENDAZOLE] | 100 |  | Active |  |  |  |
| CCCCCCCC/C=C\CCCCCCCC(=O)NC(C)c1ccccc1 (centres undefined) | 100 | Active |  |  |  |  |
| CCCCCCCCCCCCCCCCCC(=O)N[C@@H](C)c1ccccc1 | 100 | Active |  |  |  |  |
| CCCCCCCC/C=C\CCCCCCCC(=O)NN1CCOCC1 | 100 | Active |  |  |  |  |
| CCCCC/C=C\C/C=C\CCCCCCCC(=O)NN1CCCC1 | 100 |  |  | Active | 50 | 27 |
| CCCCC/C=C\C/C=C\CCCCCCCC(=O)N[C@@H](C)c1ccccc1 | 100 | Active |  |  |  |  |
| CCCCCC[C@@H](O)C/C=C\CCCCCCCC(=O)NN1CCOCC1 | 100 | Active |  |  |  |  |
| CCCCCC[C@@H](O)C/C=C\CCCCCCCC(=O)NCc1ccccc1 | 100 | Active |  |  |  |  |
| CCCCCCCC/C=C\CCCCCCCC(=O)N[C@H](C)c1ccccc1 | 100 | Active |  |  |  |  |
